{"source": "paper PMC2819846", "about": "(Mutation research, 2008)", "type_in_all_cases": "cell-based", "key": {"Salmonella TA104": {"test_system": "Salmonella TA104", "assay": "Salmonella plate-incorporation mutagenicity assay, strain TA104, with S9 mix", "details": "for Mutagenic potency, Revertants/µg ± S.E., TA104: plate-incorporation, +S9"}, "Salmonella TA98": {"test_system": "Salmonella TA98", "assay": "Salmonella plate-incorporation mutagenicity assay, strain TA98, with S9 mix"}, "Salmonella TA100": {"test_system": "Salmonella TA100", "assay": "Salmonella plate-incorporation mutagenicity assay, strain TA100", "details": "for Mutagenic potency, Revertants/µg ± S.E., TA100 / Mutagenicity call TA100: plate-incorporation, +S9"}, "[1]": {"details": "TA98 +S9, Test 1, 2 µg/plate, zero-dose 33/40/39"}, "[2]": {"details": "TA98 +S9, Test 1, 5 µg/plate, zero-dose 33/40/39"}, "[3]": {"details": "TA98 +S9, Test 1, 10 µg/plate, zero-dose 33/40/39"}, "[4]": {"details": "TA98 +S9, Test 1, 20 µg/plate, zero-dose 33/40/39"}, "[5]": {"details": "TA98 +S9, Test 1, 40 µg/plate, zero-dose 33/40/39"}, "[6]": {"details": "TA98 +S9, Test 1, 80 µg/plate, zero-dose 33/40/39"}, "[7]": {"details": "TA98 +S9, Test 2, 20 µg/plate, zero-dose 43/41/30"}, "[8]": {"details": "TA98 +S9, Test 2, 40 µg/plate, zero-dose 43/41/30"}, "[9]": {"details": "TA98 +S9, Test 2, 80 µg/plate, zero-dose 43/41/30"}, "[10]": {"details": "TA98 +S9, Test 3, 20 µg/plate, zero-dose 49/50/50"}, "[11]": {"details": "TA98 +S9, Test 3, 40 µg/plate, zero-dose 49/50/50"}, "[12]": {"details": "TA100 +S9, Test 1, 2 µg/plate, zero-dose 99/110/110"}, "[13]": {"details": "TA100 +S9, Test 1, 5 µg/plate, zero-dose 99/110/110"}, "[14]": {"details": "TA100 +S9, Test 1, 10 µg/plate, zero-dose 99/110/110"}, "[15]": {"details": "TA100 +S9, Test 1, 20 µg/plate, zero-dose 99/110/110"}, "[16]": {"details": "TA100 +S9, Test 1, 40 µg/plate, zero-dose 99/110/110"}, "[17]": {"details": "TA100 +S9, Test 1, 80 µg/plate, zero-dose 99/110/110"}}, "data": [{"compound": "O[C@@H]1c2ccccc2-c2c(ccc3ccccc23)[C@H]1O", "note": "(racemic) [B[c]P 5,6-diol, (± )-trans-5,6-Dihydrobenzo[c]phenanthrene 5,6-diol]", "values": [{"measurement": "Rev/plate", "setting": "Salmonella TA104; TA104 +S9, Test 2, 40 µg/plate, zero-dose 276/260/270", "value": 457, "unit": "rev/plate"}, {"measurement": "Rev/plate", "setting": "Salmonella TA104; TA104 +S9, Test 2, 80 µg/plate, zero-dose 276/260/270", "value": 506, "unit": "rev/plate"}, {"measurement": "Rev/plate", "setting": "Salmonella TA104; TA104 +S9, Test 2, 120 µg/plate, zero-dose 276/260/270", "value": 507, "unit": "rev/plate"}, {"measurement": "Mutagenic potency, Revertants/µg ± S.E., TA104", "setting": "Salmonella TA104", "value": "2.5 ± 1.2", "unit": "rev/µg"}, {"measurement": "Rev/plate", "setting": "Salmonella TA98; [1]", "value": 31, "unit": "rev/plate"}, {"measurement": "Rev/plate", "setting": "Salmonella TA98; [2]", "value": 41, "unit": "rev/plate"}, {"measurement": "Rev/plate", "setting": "Salmonella TA98; [3]", "value": 41, "unit": "rev/plate"}, {"measurement": "Rev/plate", "setting": "Salmonella TA98; [4]", "value": 29, "unit": "rev/plate"}, {"measurement": "Rev/plate", "setting": "Salmonella TA98; [5]", "value": 34, "unit": "rev/plate"}, {"measurement": "Rev/plate", "setting": "Salmonella TA98; [6]", "value": 40, "unit": "rev/plate"}, {"measurement": "Rev/plate", "setting": "Salmonella TA98; TA98 +S9, Test 2, 10 µg/plate, zero-dose 43/41/30", "value": "43/42"}, {"measurement": "Rev/plate", "setting": "Salmonella TA98; [7]", "value": "27/49"}, {"measurement": "Rev/plate", "setting": "Salmonella TA98; [8]", "value": "46/33"}, {"measurement": "Rev/plate", "setting": "Salmonella TA98; [9]", "value": "52/35"}, {"measurement": "Rev/plate", "setting": "Salmonella TA98; TA98 +S9, Test 3, 10 µg/plate, zero-dose 49/50/50", "value": "51/47"}, {"measurement": "Rev/plate", "setting": "Salmonella TA98; [10]", "value": "46/60"}, {"measurement": "Rev/plate", "setting": "Salmonella TA98; [11]", "value": "51/47"}, {"measurement": "Rev/plate", "setting": "Salmonella TA98; TA98 +S9, Test 3, 100 µg/plate, zero-dose 49/50/50", "value": "32/47"}, {"measurement": "Mutagenic potency, Revertants/µg ± S.E., TA98", "setting": "Salmonella TA98; plate-incorporation, +S9", "value": "−0.1 ± 0.1", "unit": "rev/µg"}, {"measurement": "Rev/plate", "setting": "Salmonella TA100; [12]", "value": 132, "unit": "rev/plate"}, {"measurement": "Rev/plate", "setting": "Salmonella TA100; [13]", "value": 151, "unit": "rev/plate"}, {"measurement": "Rev/plate", "setting": "Salmonella TA100; [14]", "value": 147, "unit": "rev/plate"}, {"measurement": "Rev/plate", "setting": "Salmonella TA100; [15]", "value": 192, "unit": "rev/plate"}, {"measurement": "Rev/plate", "setting": "Salmonella TA100; [16]", "value": 193, "unit": "rev/plate"}, {"measurement": "Rev/plate", "setting": "Salmonella TA100; [17]", "value": 263, "unit": "rev/plate"}, {"measurement": "Rev/plate", "setting": "Salmonella TA100; TA100 +S9, Test 2, 40 µg/plate, zero-dose 84/78/80", "value": "161/116"}, {"measurement": "Rev/plate", "setting": "Salmonella TA100; TA100 +S9, Test 2, 80 µg/plate, zero-dose 84/78/80", "value": "129/144"}, {"measurement": "Rev/plate", "setting": "Salmonella TA100; TA100 +S9, Test 2, 120 µg/plate, zero-dose 84/78/80", "value": "127/129"}, {"measurement": "Rev/plate", "setting": "Salmonella TA100; TA100 +S9, Test 3, 40 µg/plate, zero-dose 127/118/125", "value": "210/248"}, {"measurement": "Rev/plate", "setting": "Salmonella TA100; TA100 +S9, Test 3, 80 µg/plate, zero-dose 127/118/125", "value": "306/328"}, {"measurement": "Rev/plate", "setting": "Salmonella TA100; TA100 +S9, Test 3, 120 µg/plate, zero-dose 127/118/125", "value": "375/304"}, {"measurement": "Mutagenic potency, Revertants/µg ± S.E., TA100", "setting": "Salmonella TA100", "value": "1.6 ± 0.7", "unit": "rev/µg"}, {"measurement": "Mutagenicity call TA100", "setting": "Salmonella TA100", "value": "(+) (Called mutagenic (+) based on showing reproducible, dose-related increases in rev/plate that reached or exceeded 2-fold relative to zero-dose controls)"}]}, {"compound": "O[C@@H]1c2ccccc2-c2c(ccc3sccc23)[C@H]1O", "note": "(racemic) [P[3,4-b]T 6,7-diol, (± )-trans-6,7-Dihydrophenanthro[3,4-b]thiophene 6,7-diol]", "values": [{"measurement": "Rev/plate", "setting": "Salmonella TA104; TA104 +S9, Test 2, 2 µg/plate, zero-dose 276/260/270", "value": "365/338"}, {"measurement": "Rev/plate", "setting": "Salmonella TA104; TA104 +S9, Test 2, 5 µg/plate, zero-dose 276/260/270", "value": "407/431"}, {"measurement": "Rev/plate", "setting": "Salmonella TA104; TA104 +S9, Test 2, 10 µg/plate, zero-dose 276/260/270", "value": "475/484"}, {"measurement": "Rev/plate", "setting": "Salmonella TA104; TA104 +S9, Test 2, 20 µg/plate, zero-dose 276/260/270", "value": "538/576"}, {"measurement": "Rev/plate", "setting": "Salmonella TA104; TA104 +S9, Test 3, 2 µg/plate, zero-dose 402/395/336", "value": "475/419"}, {"measurement": "Rev/plate", "setting": "Salmonella TA104; TA104 +S9, Test 3, 5 µg/plate, zero-dose 402/395/336", "value": "498/541"}, {"measurement": "Rev/plate", "setting": "Salmonella TA104; TA104 +S9, Test 3, 10 µg/plate, zero-dose 402/395/336", "value": "532/550"}, {"measurement": "Rev/plate", "setting": "Salmonella TA104; TA104 +S9, Test 3, 20 µg/plate, zero-dose 402/395/336", "value": "533/627"}, {"measurement": "Mutagenic potency, Revertants/µg ± S.E., TA104", "setting": "Salmonella TA104", "value": "24.9 ± 8.3", "unit": "rev/µg"}, {"measurement": "Rev/plate", "setting": "Salmonella TA98; [1]", "value": 45, "unit": "rev/plate"}, {"measurement": "Rev/plate", "setting": "Salmonella TA98; [2]", "value": 47, "unit": "rev/plate"}, {"measurement": "Rev/plate", "setting": "Salmonella TA98; [3]", "value": 61, "unit": "rev/plate"}, {"measurement": "Rev/plate", "setting": "Salmonella TA98; [4]", "value": 62, "unit": "rev/plate"}, {"measurement": "Rev/plate", "setting": "Salmonella TA98; [5]", "value": 107, "unit": "rev/plate"}, {"measurement": "Rev/plate", "setting": "Salmonella TA98; [6]", "value": 130, "unit": "rev/plate"}, {"measurement": "Rev/plate", "setting": "Salmonella TA98; [7]", "value": "64/63"}, {"measurement": "Rev/plate", "setting": "Salmonella TA98; [8]", "value": "72/84"}, {"measurement": "Rev/plate", "setting": "Salmonella TA98; [9]", "value": "146/141"}, {"measurement": "Rev/plate", "setting": "Salmonella TA98; TA98 +S9, Test 2, 150 µg/plate, zero-dose 43/41/30", "value": "207/190"}, {"measurement": "Rev/plate", "setting": "Salmonella TA98; [10]", "value": "90/111"}, {"measurement": "Rev/plate", "setting": "Salmonella TA98; [11]", "value": "132/132"}, {"measurement": "Rev/plate", "setting": "Salmonella TA98; TA98 +S9, Test 3, 80 µg/plate, zero-dose 49/50/50", "value": "181/199"}, {"measurement": "Rev/plate", "setting": "Salmonella TA98; TA98 +S9, Test 3, 150 µg/plate, zero-dose 49/50/50", "value": "241/222"}, {"measurement": "Mutagenic potency, Revertants/µg ± S.E., TA98", "setting": "Salmonella TA98; plate-incorporation, +S9", "value": "1.4 ± 0.2", "unit": "rev/µg"}, {"measurement": "Mutagenicity call TA98", "setting": "Salmonella TA98; plate-incorporation, +S9", "value": "(+) (Called mutagenic (+) based on showing reproducible, dose-related increases in rev/plate that reached or exceeded 2-fold relative to zero-dose controls)"}, {"measurement": "Rev/plate", "setting": "Salmonella TA100; [12]", "value": 280, "unit": "rev/plate"}, {"measurement": "Rev/plate", "setting": "Salmonella TA100; [13]", "value": 461, "unit": "rev/plate"}, {"measurement": "Rev/plate", "setting": "Salmonella TA100; [14]", "value": 580, "unit": "rev/plate"}, {"measurement": "Rev/plate", "setting": "Salmonella TA100; [15]", "value": 1052, "unit": "rev/plate"}, {"measurement": "Rev/plate", "setting": "Salmonella TA100; [16]", "value": 1172, "unit": "rev/plate"}, {"measurement": "Rev/plate", "setting": "Salmonella TA100; [17]", "value": 1286, "unit": "rev/plate"}, {"measurement": "Rev/plate", "setting": "Salmonella TA100; TA100 +S9, Test 2, 2 µg/plate, zero-dose 84/78/80", "value": "224/217"}, {"measurement": "Rev/plate", "setting": "Salmonella TA100; TA100 +S9, Test 2, 5 µg/plate, zero-dose 84/78/80", "value": "369/364"}, {"measurement": "Rev/plate", "setting": "Salmonella TA100; TA100 +S9, Test 2, 10 µg/plate, zero-dose 84/78/80", "value": "746/565"}, {"measurement": "Rev/plate", "setting": "Salmonella TA100; TA100 +S9, Test 2, 20 µg/plate, zero-dose 84/78/80", "value": "593/607"}, {"measurement": "Rev/plate", "setting": "Salmonella TA100; TA100 +S9, Test 3, 2 µg/plate, zero-dose 127/118/125", "value": "305/298"}, {"measurement": "Rev/plate", "setting": "Salmonella TA100; TA100 +S9, Test 3, 5 µg/plate, zero-dose 127/118/125", "value": "573/564"}, {"measurement": "Rev/plate", "setting": "Salmonella TA100; TA100 +S9, Test 3, 10 µg/plate, zero-dose 127/118/125", "value": "862/714"}, {"measurement": "Rev/plate", "setting": "Salmonella TA100; TA100 +S9, Test 3, 20 µg/plate, zero-dose 127/118/125", "value": "1142/1113"}, {"measurement": "Mutagenic potency, Revertants/µg ± S.E., TA100", "setting": "Salmonella TA100", "value": "59.8 ± 6.1", "unit": "rev/µg"}, {"measurement": "Mutagenicity call TA100", "setting": "Salmonella TA100", "value": "(+) (Called mutagenic (+) based on showing reproducible, dose-related increases in rev/plate that reached or exceeded 2-fold relative to zero-dose controls)"}]}]}
